From PubChem BioAssay (NCI) come the findings set out here.

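96-well plates; 48 h exposure; 5 concentrations. Endpoints by linear interpolation between flanking doses. Not reached: highest tested concentration assigned. TGI marks complete inhibition of growth.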

One experiment relates to HOP-92 NSCLC. As to the kind of experiment: NCI anticancer screen, dose series, 48 h.
On to `O=C1N[C@@H]2c3c(csc3Br)C(=O)[C@@H]2O1`, for which the TGI was determined as 59.3 µM.

Consider `Cc1cc(C)c2c(n1)S(=O)(=O)N(CCCN1CCN(c3cccc(C(F)(F)F)c3)CC1)/C(=C(\O)c1ccc(Cl)cc1)C2=O`, for which the TGI was found to be 8.35 µM.

As to `CCn1c(=O)c2c3cc(O)ccc3oc2c2ccc(O)cc21`, the TGI was found to be 80.3 µM.

For the compound `O=C1CCC(NC(=O)c2ccccc2)C(=O)N1` (stereo unspecified), the TGI was over 100 µM.

The next experiment deals with HS 578T breast. As to the kind of experiment: NCI anticancer screen, dose series, 48 h.
`O=C1N[C@@H]2c3c(csc3Br)C(=O)[C@@H]2O1` yielded a TGI of over 100 µM.

`Cc1cc(C)c2c(n1)S(=O)(=O)N(CCCN1CCN(c3cccc(C(F)(F)F)c3)CC1)/C(=C(\O)c1ccc(Cl)cc1)C2=O` gave a TGI of 56.8 µM.

`CCn1c(=O)c2c3cc(O)ccc3oc2c2ccc(O)cc21` displayed a TGI of over 100 µM.

Regarding `O=C1CCC(NC(=O)c2ccccc2)C(=O)N1` (stereo unspecified), the TGI is over 100 µM.

The subject of another experiment is HT29 colon. As to the kind of experiment: NCI anticancer screen, dose series, 48 h.
Take `O=C1N[C@@H]2c3c(csc3Br)C(=O)[C@@H]2O1`: the TGI was over 100 µM.

Turning to `Cc1cc(C)c2c(n1)S(=O)(=O)N(CCCN1CCN(c3cccc(C(F)(F)F)c3)CC1)/C(=C(\O)c1ccc(Cl)cc1)C2=O`, the TGI stood at 13.3 µM.

Turning to `CCn1c(=O)c2c3cc(O)ccc3oc2c2ccc(O)cc21`, the TGI came to 77.5 µM.

`O=C1CCC(NC(=O)c2ccccc2)C(=O)N1` (stereo unspecified) came in with a TGI of over 100 µM.

Another experiment deals with IGROV1 ovarian. As to the kind of experiment: NCI anticancer screen, dose series, 48 h.
In turn, `O=C1N[C@@H]2c3c(csc3Br)C(=O)[C@@H]2O1` gave a TGI of over 100 µM.

As for `Cc1cc(C)c2c(n1)S(=O)(=O)N(CCCN1CCN(c3cccc(C(F)(F)F)c3)CC1)/C(=C(\O)c1ccc(Cl)cc1)C2=O`, the TGI is 16.2 µM.

`CCn1c(=O)c2c3cc(O)ccc3oc2c2ccc(O)cc21` came in with a TGI of over 100 µM.

Take `O=C1CCC(NC(=O)c2ccccc2)C(=O)N1` (stereo unspecified): the TGI is over 100 µM.

A further experiment relates to K-562 leukemia. The experiment in a line: NCI anticancer screen, dose series, 48 h.
With `O=C1N[C@@H]2c3c(csc3Br)C(=O)[C@@H]2O1`, the TGI came to 53.4 µM.

The compound `Cc1cc(C)c2c(n1)S(=O)(=O)N(CCCN1CCN(c3cccc(C(F)(F)F)c3)CC1)/C(=C(\O)c1ccc(Cl)cc1)C2=O` came in with a TGI of over 100 µM.

`CCn1c(=O)c2c3cc(O)ccc3oc2c2ccc(O)cc21`: the TGI is over 100 µM.

A further experiment relates to KM12 colon. The experiment in a line: NCI anticancer screen, dose series, 48 h.
Consider `O=C1N[C@@H]2c3c(csc3Br)C(=O)[C@@H]2O1`, for which the TGI was over 100 µM.

Consider `Cc1cc(C)c2c(n1)S(=O)(=O)N(CCCN1CCN(c3cccc(C(F)(F)F)c3)CC1)/C(=C(\O)c1ccc(Cl)cc1)C2=O`, for which the TGI is 14.6 µM.

With `CCn1c(=O)c2c3cc(O)ccc3oc2c2ccc(O)cc21`, the TGI was over 100 µM.

The compound `O=C1CCC(NC(=O)c2ccccc2)C(=O)N1` (stereo unspecified) displayed a TGI of over 100 µM.

Another experiment relates to LOX IMVI melanoma. The experiment in a line: NCI anticancer screen, dose series, 48 h.
Compound `O=C1N[C@@H]2c3c(csc3Br)C(=O)[C@@H]2O1` showed a TGI of 41.3 µM.

The compound `Cc1cc(C)c2c(n1)S(=O)(=O)N(CCCN1CCN(c3cccc(C(F)(F)F)c3)CC1)/C(=C(\O)c1ccc(Cl)cc1)C2=O` showed a TGI of 17.6 µM.

The compound `O=C1CCC(NC(=O)c2ccccc2)C(=O)N1` (stereo unspecified) showed a TGI of over 100 µM.

For the next experiment, the system named is M14 melanoma. The experiment in a line: NCI anticancer screen, dose series, 48 h.
`O=C1N[C@@H]2c3c(csc3Br)C(=O)[C@@H]2O1` registered a TGI of over 100 µM.

Compound `Cc1cc(C)c2c(n1)S(=O)(=O)N(CCCN1CCN(c3cccc(C(F)(F)F)c3)CC1)/C(=C(\O)c1ccc(Cl)cc1)C2=O` came in with a TGI of 18.1 µM.

The compound `CCn1c(=O)c2c3cc(O)ccc3oc2c2ccc(O)cc21` returned a TGI of over 100 µM.

Regarding `O=C1CCC(NC(=O)c2ccccc2)C(=O)N1` (stereo unspecified), the TGI is over 100 µM.

Another experiment relates to MALME-3M melanoma. As to the kind of experiment: NCI anticancer screen, dose series, 48 h.
Consider `O=C1N[C@@H]2c3c(csc3Br)C(=O)[C@@H]2O1`, for which the TGI is over 100 µM.

In turn, `Cc1cc(C)c2c(n1)S(=O)(=O)N(CCCN1CCN(c3cccc(C(F)(F)F)c3)CC1)/C(=C(\O)c1ccc(Cl)cc1)C2=O` had a TGI of 15.8 µM.

For the compound `CCn1c(=O)c2c3cc(O)ccc3oc2c2ccc(O)cc21`, the TGI is over 100 µM.

For the compound `O=C1CCC(NC(=O)c2ccccc2)C(=O)N1` (stereo unspecified), the TGI was over 100 µM.

For a further experiment, the system named is MCF7 breast. As to the kind of experiment: NCI anticancer screen, dose series, 48 h.
Take `O=C1N[C@@H]2c3c(csc3Br)C(=O)[C@@H]2O1`: the TGI was over 100 µM.

`Cc1cc(C)c2c(n1)S(=O)(=O)N(CCCN1CCN(c3cccc(C(F)(F)F)c3)CC1)/C(=C(\O)c1ccc(Cl)cc1)C2=O` showed a TGI of 14 µM.

Regarding `CCn1c(=O)c2c3cc(O)ccc3oc2c2ccc(O)cc21`, the TGI is over 100 µM.

The compound `O=C1CCC(NC(=O)c2ccccc2)C(=O)N1` (stereo unspecified) yielded a TGI of over 100 µM.

A further experiment has as its system MDA-MB-231 breast. The experiment in a line: NCI anticancer screen, dose series, 48 h.
As for `O=C1N[C@@H]2c3c(csc3Br)C(=O)[C@@H]2O1`, the TGI was over 100 µM.

The compound `Cc1cc(C)c2c(n1)S(=O)(=O)N(CCCN1CCN(c3cccc(C(F)(F)F)c3)CC1)/C(=C(\O)c1ccc(Cl)cc1)C2=O` had a TGI of 18.7 µM.

With `CCn1c(=O)c2c3cc(O)ccc3oc2c2ccc(O)cc21`, the TGI was over 100 µM.

Compound `O=C1CCC(NC(=O)c2ccccc2)C(=O)N1` (stereo unspecified) returned a TGI of over 100 µM.

The test system of the next experiment is MDA-MB-435. The experiment in a line: NCI anticancer screen, dose series, 48 h.
As to `O=C1N[C@@H]2c3c(csc3Br)C(=O)[C@@H]2O1`, the TGI amounted to 46.9 µM.

For the compound `Cc1cc(C)c2c(n1)S(=O)(=O)N(CCCN1CCN(c3cccc(C(F)(F)F)c3)CC1)/C(=C(\O)c1ccc(Cl)cc1)C2=O`, the TGI was found to be 15 µM.

`CCn1c(=O)c2c3cc(O)ccc3oc2c2ccc(O)cc21` registered a TGI of over 100 µM.

Take `O=C1CCC(NC(=O)c2ccccc2)C(=O)N1` (stereo unspecified): the TGI is over 100 µM.

The next experiment has as its system MDA-N. As to the kind of experiment: NCI anticancer screen, dose series, 48 h.
For the compound `O=C1N[C@@H]2c3c(csc3Br)C(=O)[C@@H]2O1`, the TGI was 67.6 µM.

In turn, `Cc1cc(C)c2c(n1)S(=O)(=O)N(CCCN1CCN(c3cccc(C(F)(F)F)c3)CC1)/C(=C(\O)c1ccc(Cl)cc1)C2=O` yielded a TGI of 15 µM.

The compound `CCn1c(=O)c2c3cc(O)ccc3oc2c2ccc(O)cc21` registered a TGI of over 100 µM.

In the case of `O=C1CCC(NC(=O)c2ccccc2)C(=O)N1` (stereo unspecified), the TGI is over 100 µM.

The test system of the next experiment is MOLT-4 leukemia. The experiment in a line: NCI anticancer screen, dose series, 48 h.
Turning to `O=C1N[C@@H]2c3c(csc3Br)C(=O)[C@@H]2O1`, the TGI was 52.4 µM.

Regarding `Cc1cc(C)c2c(n1)S(=O)(=O)N(CCCN1CCN(c3cccc(C(F)(F)F)c3)CC1)/C(=C(\O)c1ccc(Cl)cc1)C2=O`, the TGI worked out at 4 µM.

With `CCn1c(=O)c2c3cc(O)ccc3oc2c2ccc(O)cc21`, the TGI is over 100 µM.

On to `O=C1CCC(NC(=O)c2ccccc2)C(=O)N1` (stereo unspecified), for which the TGI was found to be 16.9 µM.

The next experiment deals with NCI-H226 lung. The experiment in a line: NCI anticancer screen, dose series, 48 h.
In turn, `Cc1cc(C)c2c(n1)S(=O)(=O)N(CCCN1CCN(c3cccc(C(F)(F)F)c3)CC1)/C(=C(\O)c1ccc(Cl)cc1)C2=O` yielded a TGI of 8.61 µM.

In turn, `CCn1c(=O)c2c3cc(O)ccc3oc2c2ccc(O)cc21` came in with a TGI of over 100 µM.
